Results taken from ChEMBL document CHEMBL3046493, “Alpha2-Adrenergic Receptors in Intestinal Epithelial Cells: Mechanisms of Signaling, Role, and Regulation” (Med Chem Res, 2004).

Target: Nischarin (Rattus norvegicus, UniProt Q4G017)
Assay: Binding affinity to I1 imidazoline binding site in Rattus norvegicus (rat) PC12 cells
Type: cell-based, PC-12

Chain of Nischarin (Q4G017 whole entry): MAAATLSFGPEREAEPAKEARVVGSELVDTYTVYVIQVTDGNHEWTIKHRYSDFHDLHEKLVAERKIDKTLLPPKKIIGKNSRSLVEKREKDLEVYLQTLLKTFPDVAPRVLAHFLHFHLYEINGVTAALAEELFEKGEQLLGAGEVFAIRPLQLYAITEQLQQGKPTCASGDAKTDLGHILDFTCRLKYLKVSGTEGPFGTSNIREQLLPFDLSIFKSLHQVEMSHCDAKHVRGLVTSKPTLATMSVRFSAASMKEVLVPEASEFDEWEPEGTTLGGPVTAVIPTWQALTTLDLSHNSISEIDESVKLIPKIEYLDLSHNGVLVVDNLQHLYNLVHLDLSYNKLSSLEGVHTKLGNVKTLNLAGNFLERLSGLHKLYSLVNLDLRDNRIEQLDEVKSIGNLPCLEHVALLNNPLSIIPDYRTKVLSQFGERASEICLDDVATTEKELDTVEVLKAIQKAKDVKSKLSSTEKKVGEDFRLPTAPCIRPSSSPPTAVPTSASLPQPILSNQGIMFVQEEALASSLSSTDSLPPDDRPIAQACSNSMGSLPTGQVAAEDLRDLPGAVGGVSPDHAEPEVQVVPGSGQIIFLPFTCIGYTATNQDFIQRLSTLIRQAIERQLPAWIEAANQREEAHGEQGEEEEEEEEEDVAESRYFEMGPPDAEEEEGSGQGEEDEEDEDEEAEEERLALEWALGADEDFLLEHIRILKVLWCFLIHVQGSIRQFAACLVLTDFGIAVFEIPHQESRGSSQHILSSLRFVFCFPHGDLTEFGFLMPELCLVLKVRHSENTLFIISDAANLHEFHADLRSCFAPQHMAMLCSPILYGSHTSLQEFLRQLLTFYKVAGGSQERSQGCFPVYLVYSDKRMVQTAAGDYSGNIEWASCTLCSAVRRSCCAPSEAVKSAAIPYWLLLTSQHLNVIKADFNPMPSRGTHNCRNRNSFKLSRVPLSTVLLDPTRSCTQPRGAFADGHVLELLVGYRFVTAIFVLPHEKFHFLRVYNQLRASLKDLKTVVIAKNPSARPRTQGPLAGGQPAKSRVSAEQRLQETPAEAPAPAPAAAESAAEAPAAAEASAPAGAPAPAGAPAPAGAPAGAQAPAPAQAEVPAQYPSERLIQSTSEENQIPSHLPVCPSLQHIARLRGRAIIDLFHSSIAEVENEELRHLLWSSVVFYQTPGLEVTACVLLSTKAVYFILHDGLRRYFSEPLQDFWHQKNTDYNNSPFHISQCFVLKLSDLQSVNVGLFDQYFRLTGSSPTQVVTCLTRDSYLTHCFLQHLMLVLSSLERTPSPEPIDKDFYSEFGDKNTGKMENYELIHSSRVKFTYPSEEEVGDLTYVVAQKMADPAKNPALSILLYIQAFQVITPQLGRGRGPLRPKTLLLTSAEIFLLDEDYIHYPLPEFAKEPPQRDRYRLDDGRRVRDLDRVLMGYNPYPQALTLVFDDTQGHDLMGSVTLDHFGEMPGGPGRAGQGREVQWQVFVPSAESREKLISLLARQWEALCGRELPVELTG

| SMILES | Ki [nM] |
| --- | --- |
| Clc1cccc2c1CN(NC1=NCCN1)C2 | 6.92 |
| c1ccc(-c2ccccc2OCC2=NCCN2)cc1 | 2.34 |
| C[C@H](CC1=NCCN1)c1ccccc1 | 589 |
| C[C@@H](CC1=NCCN1)c1ccccc1 | 7240 |
| C[C@@H](Oc1ccccc1-c1ccccc1)C1=NCCN1 | 3.98 |
| C1CN=C(NC(C2CC2)C2CC2)C1 | 513 |
| c1ccc(-c2ccccc2NCC2=NCCN2)cc1 | 0.933 |
| C[C@H](Oc1ccccc1-c1ccccc1)C1=NCCN1 | 129 |
| c1ccc(C(CC2=NCCN2)c2ccccc2)cc1 | 3090 |
| c1ccc(-c2ccccc2CCC2=NCCN2)cc1 | 3240 |
| c1ccc([C@@H]2C[C@H]2C2=NCCN2)cc1 | 347 |
| c1ccc([C@H]2C[C@@H]2C2=NCCN2)cc1 | 11.7 |
| c1ccc2cc(C3=NCCN3)ccc2c1 [BENAZOLINE] | 1.29 |
| c1ccc(C2CC2)c(OCC2=NCCN2)c1 [CIRAZOLINE] | 1740 |
| Clc1cccc(Cl)c1N=C1NCCN1 [CLONIDINE] | 112 |
| c1ccc2c(CC3=NCCN3)cccc2c1 [NAPHAZOLINE] | 245 |
| c1ccc(NCC2=NCCN2)cc1 [PHENAMAZOLINE] | 0.501 |
| c1ccc(CCC2=NCCN2)cc1 [PHENYZOLINE] | 3720 |
| Clc1cc(I)cc(Cl)c1N=C1NCCN1 [PI-CLONIDINE] | 0.0339 |
| C1COC(NC(C2CC2)C2CC2)=N1 [RILMENIDINE] | 11.2 |
| C(=C\c1ccccc1)/C1=NCCN1 [TRACIZOLINE] | 18.6 |
